Publication doi:10.1101/2020.06.11.145995v1 (biorxiv, 2020)
Like-named read-outs stand apart in the source and are kept apart here. Blank lines part the entries; values can stand above or below the compound they belong to.

How the values were obtained:
Test in all cases: biochemical
[1] = biological target: YANK1 (Homo sapiens, UniProt Q8WU08)
[2] = biological target: TBK1 (Homo sapiens, UniProt Q9UHD2)
[3] = biological target: PIK3CA (Homo sapiens, UniProt P42336)
[4] = biological target: AAK1 (Homo sapiens, UniProt Q2M2I8)
[5] = biological target: PIK3CA(E545A) (Homo sapiens, UniProt P42336, E545A)
[6] = biological target: PRKD2 (Homo sapiens, UniProt Q9BZL6)
[7] = biological target: PIK3C2B (Homo sapiens, UniProt O00750)
[8] = biological target: TESK1 (Homo sapiens, UniProt Q15569)
[9] = biological target: p38-gamma (Homo sapiens, UniProt P53778)
[10] = biological target: TNK2 (Homo sapiens, UniProt Q07912)
[11] = biological target: p38-alpha (Homo sapiens, UniProt Q16539)
[12] = biological target: RIOK3 (Homo sapiens, UniProt O14730)
[13] = biological target: TTK (Homo sapiens, UniProt P33981)
[14] = biological target: PLK2 (Homo sapiens, UniProt Q9NYY3)
[15] = biological target: RIPK4 (Homo sapiens, UniProt P57078)
[16] = biological target: PRKG1 (Homo sapiens, UniProt Q13976)
[17] = biological target: PAK3 (Homo sapiens, UniProt O75914)
[18] = biological target: PIK3CA(H1047L) (Homo sapiens, UniProt P42336, H1047L)
[19] = biological target: RAF1 (Homo sapiens, UniProt P04049)
[20] = biological target: PHKG2 (Homo sapiens, UniProt P15735)
[21] = biological target: TLK2 (Homo sapiens, UniProt Q86UE8)
[22] = biological target: NEK7 (Homo sapiens, UniProt Q8TDX7)
[23] = biological target: SRC (Homo sapiens, UniProt P12931)
[24] = biological target: PAK1 (Homo sapiens, UniProt Q13153)
[25] = biological target: RIPK5 (Homo sapiens, UniProt Q6XUX3)
[26] = biological target: RSK3 (Homo sapiens, UniProt Q15349)
[27] = biological target: TRKB (Homo sapiens, UniProt Q16620)
[28] = biological target: NEK2 (Homo sapiens, UniProt P51955)
[29] = biological target: YES (Homo sapiens, UniProt P07947)
[30] = read-out: CPT-1-70-1 (1μM) % control
[31] = read-out: HYJ-2-002-1 (1μM) % control

RSK3, sequence (Q15349 whole entry): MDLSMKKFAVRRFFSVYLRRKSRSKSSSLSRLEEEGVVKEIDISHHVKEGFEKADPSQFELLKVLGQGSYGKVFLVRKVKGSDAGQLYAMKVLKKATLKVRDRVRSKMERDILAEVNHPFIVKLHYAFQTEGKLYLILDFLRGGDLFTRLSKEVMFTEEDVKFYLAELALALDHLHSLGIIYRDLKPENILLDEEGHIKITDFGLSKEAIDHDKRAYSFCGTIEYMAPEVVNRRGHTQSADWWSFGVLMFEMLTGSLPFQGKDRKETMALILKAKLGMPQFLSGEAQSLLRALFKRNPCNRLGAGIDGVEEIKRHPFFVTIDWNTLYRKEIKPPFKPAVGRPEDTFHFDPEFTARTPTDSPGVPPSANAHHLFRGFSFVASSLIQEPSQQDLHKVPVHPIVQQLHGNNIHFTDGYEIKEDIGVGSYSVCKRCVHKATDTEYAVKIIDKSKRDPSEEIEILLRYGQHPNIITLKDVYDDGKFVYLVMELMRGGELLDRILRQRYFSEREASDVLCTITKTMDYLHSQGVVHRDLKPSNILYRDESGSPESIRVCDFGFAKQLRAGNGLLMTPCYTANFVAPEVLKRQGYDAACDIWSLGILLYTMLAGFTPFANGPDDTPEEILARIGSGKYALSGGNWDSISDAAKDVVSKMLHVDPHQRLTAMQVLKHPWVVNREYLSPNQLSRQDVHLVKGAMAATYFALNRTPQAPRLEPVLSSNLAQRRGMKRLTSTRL
AAK1, sequence (Q2M2I8 whole entry): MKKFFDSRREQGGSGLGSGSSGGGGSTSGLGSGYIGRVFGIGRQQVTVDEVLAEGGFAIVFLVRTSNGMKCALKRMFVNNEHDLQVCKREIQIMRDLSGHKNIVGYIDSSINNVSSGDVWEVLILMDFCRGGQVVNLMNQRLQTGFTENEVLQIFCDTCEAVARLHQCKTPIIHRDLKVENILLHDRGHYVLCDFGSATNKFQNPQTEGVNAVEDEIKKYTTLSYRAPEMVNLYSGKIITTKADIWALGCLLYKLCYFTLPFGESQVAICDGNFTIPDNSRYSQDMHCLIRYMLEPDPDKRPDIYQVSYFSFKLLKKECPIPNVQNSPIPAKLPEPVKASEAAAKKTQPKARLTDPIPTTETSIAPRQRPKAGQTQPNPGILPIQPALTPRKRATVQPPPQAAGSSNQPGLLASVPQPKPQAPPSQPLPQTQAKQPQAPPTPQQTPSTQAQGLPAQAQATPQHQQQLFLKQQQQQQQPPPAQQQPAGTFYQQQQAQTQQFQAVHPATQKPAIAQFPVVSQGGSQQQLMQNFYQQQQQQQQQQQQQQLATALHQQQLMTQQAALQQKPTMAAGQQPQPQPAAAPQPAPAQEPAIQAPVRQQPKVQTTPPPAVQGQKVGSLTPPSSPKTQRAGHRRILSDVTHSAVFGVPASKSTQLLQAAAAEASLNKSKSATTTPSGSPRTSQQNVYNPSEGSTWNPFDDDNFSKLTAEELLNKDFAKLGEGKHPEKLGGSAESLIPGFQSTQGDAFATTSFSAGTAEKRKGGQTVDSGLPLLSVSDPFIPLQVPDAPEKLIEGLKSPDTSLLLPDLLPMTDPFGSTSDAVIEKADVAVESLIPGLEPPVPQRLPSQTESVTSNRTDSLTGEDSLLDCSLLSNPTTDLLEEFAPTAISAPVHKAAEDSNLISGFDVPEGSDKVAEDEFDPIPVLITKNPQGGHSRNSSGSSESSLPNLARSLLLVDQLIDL
p38-alpha, sequence (Q16539 whole entry): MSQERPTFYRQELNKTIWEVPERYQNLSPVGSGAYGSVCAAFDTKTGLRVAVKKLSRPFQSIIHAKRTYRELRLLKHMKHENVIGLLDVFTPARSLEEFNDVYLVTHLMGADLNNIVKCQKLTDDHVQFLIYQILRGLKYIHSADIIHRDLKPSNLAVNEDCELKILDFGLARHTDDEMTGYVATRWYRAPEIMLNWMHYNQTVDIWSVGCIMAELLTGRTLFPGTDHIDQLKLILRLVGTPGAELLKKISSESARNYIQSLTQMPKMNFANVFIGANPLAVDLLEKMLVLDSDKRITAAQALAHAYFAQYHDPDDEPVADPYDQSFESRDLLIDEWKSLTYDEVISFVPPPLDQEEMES
PRKG1, sequence (Q13976 whole entry): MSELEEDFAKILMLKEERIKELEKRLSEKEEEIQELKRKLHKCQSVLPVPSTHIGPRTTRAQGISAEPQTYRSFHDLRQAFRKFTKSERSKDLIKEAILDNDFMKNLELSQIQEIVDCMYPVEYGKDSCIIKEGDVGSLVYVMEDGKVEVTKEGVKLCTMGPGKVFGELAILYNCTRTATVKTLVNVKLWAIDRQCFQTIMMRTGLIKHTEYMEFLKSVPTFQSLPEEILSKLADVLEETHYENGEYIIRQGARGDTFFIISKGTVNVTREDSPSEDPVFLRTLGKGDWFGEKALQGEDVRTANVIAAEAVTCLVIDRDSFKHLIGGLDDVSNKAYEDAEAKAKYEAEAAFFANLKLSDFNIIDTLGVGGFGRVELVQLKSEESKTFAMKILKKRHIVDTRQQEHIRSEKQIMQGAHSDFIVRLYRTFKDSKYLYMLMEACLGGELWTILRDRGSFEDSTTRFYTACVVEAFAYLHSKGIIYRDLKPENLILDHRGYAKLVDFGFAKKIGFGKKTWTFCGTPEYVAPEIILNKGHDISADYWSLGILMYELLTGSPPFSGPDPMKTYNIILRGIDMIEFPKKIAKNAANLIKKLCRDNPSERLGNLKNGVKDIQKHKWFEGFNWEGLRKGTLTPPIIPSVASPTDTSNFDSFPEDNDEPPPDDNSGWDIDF
PIK3CA(E545A), sequence (P42336 whole entry E545A): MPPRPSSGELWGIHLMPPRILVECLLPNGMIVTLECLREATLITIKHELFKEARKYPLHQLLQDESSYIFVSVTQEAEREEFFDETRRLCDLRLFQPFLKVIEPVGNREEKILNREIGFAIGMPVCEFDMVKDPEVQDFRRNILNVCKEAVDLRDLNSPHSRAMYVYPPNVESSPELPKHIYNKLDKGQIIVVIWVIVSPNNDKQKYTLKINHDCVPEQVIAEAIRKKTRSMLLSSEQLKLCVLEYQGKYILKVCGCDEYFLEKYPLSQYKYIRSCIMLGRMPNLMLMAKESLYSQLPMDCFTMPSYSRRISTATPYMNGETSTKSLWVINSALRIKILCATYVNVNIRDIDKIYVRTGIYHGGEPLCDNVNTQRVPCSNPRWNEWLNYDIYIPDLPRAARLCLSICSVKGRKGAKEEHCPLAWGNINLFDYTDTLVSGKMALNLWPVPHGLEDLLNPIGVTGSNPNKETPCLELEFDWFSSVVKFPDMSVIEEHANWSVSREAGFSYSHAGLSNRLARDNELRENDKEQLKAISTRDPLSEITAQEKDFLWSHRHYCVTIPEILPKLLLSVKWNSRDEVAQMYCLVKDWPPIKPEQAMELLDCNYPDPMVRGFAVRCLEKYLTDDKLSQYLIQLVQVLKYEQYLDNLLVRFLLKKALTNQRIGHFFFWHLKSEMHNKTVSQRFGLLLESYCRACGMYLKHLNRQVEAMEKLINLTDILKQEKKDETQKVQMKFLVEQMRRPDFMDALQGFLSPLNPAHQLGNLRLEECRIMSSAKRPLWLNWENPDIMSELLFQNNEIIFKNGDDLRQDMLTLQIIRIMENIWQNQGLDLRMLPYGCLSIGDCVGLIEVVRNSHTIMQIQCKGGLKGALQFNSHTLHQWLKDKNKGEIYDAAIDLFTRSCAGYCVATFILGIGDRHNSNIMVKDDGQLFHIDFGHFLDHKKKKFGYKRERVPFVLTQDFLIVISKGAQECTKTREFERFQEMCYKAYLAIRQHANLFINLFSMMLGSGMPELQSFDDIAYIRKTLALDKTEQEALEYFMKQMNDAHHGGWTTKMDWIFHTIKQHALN
RAF1, sequence (P04049 whole entry): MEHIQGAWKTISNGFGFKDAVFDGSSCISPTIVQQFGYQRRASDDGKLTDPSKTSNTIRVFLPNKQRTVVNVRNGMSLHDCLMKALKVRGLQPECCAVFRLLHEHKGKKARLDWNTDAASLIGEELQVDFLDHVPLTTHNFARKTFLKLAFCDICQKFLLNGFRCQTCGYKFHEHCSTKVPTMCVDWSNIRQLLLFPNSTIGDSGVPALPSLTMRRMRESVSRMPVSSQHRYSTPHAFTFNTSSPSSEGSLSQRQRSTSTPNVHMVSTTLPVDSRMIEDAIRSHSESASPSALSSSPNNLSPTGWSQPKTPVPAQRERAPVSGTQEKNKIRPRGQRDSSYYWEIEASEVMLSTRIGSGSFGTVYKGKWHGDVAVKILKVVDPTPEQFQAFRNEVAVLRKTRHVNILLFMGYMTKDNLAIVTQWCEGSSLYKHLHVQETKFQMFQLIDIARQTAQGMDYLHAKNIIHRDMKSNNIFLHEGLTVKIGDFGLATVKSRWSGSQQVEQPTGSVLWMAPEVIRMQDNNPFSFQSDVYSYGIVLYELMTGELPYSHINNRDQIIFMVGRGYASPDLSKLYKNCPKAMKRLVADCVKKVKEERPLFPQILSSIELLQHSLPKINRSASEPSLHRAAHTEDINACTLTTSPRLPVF
PIK3CA, sequence (P42336 whole entry): as the sequence (P42336 whole entry E545A) above, with A545E counted along it
PHKG2, sequence (P15735 whole entry): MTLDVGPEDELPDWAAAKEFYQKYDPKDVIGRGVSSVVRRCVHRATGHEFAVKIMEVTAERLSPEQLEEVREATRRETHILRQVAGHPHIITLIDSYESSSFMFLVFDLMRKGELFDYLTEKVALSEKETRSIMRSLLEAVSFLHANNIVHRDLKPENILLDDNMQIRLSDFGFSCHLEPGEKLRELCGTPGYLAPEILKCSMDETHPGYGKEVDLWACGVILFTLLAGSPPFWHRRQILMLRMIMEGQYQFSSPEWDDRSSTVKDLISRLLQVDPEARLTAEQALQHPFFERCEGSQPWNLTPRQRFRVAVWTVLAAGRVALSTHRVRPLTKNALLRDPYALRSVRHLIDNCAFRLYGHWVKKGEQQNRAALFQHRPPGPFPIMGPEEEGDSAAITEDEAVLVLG
PIK3CA(H1047L), sequence (P42336 whole entry H1047L): as the sequence (P42336 whole entry E545A) above, with A545E, H1047L counted along it

SMILES: CN1CCN(c2ccc(Nc3nc(Oc4ccc(NC(=O)CCl)cc4)c4cc[nH]c4n3)cc2)CC1 [CPT1-70-1]
- remaining activity at 1 µM [1, 30]: 100%
- remaining activity at 1 µM [2, 30]: 43%
- remaining activity at 1 µM [3, 30]: 100%
- remaining activity at 1 µM [4, 30]: 18%
- remaining activity at 1 µM [5, 30]: 79%
- remaining activity at 1 µM [6, 30]: 70%
- remaining activity at 1 µM [7, 30]: 100%
- remaining activity at 1 µM [8, 30]: 83%
- remaining activity at 1 µM [9, 30]: 100%
- remaining activity at 1 µM [10, 30]: 100%
- remaining activity at 1 µM [11, 30]: 100%
- remaining activity at 1 µM [12, 30]: 53%
- remaining activity at 1 µM [13, 30]: 4.8%
- remaining activity at 1 µM [14, 30]: 78%
- remaining activity at 1 µM [15, 30]: 100%
- remaining activity at 1 µM [16, 30]: 100%
- remaining activity at 1 µM [17, 30]: 50%
- remaining activity at 1 µM [18, 30]: 100%
- remaining activity at 1 µM [19, 30]: 86%
- remaining activity at 1 µM [20, 30]: 72%
- remaining activity at 1 µM [21, 30]: 100%
- remaining activity at 1 µM [22, 30]: 100%
- remaining activity at 1 µM [23, 30]: 6.6%
- remaining activity at 1 µM [24, 30]: 64%
- remaining activity at 1 µM [25, 30]: 33%
- remaining activity at 1 µM ([26]; read-out: CPT-1-70-1 (1μM) % control, Kin.Dom.1-N-terminal): 66%
- remaining activity at 1 µM ([26]; read-out: CPT-1-70-1 (1μM) % control, Kin.Dom.2-C-terminal): 100%
- remaining activity at 1 µM [27, 30]: 28%
- remaining activity at 1 µM [28, 30]: 100%
- remaining activity at 1 µM [29, 30]: 17%

- remaining activity at 1 µM [1, 31]: 100%
- remaining activity at 1 µM [2, 31]: 100%
- remaining activity at 1 µM [3, 31]: 100%
- remaining activity at 1 µM [4, 31]: 100%
- remaining activity at 1 µM [5, 31]: 100%
- remaining activity at 1 µM [6, 31]: 42%
- remaining activity at 1 µM [7, 31]: 100%
- remaining activity at 1 µM [8, 31]: 81%
- remaining activity at 1 µM [9, 31]: 54%
- remaining activity at 1 µM [10, 31]: 4.1%
- remaining activity at 1 µM [11, 31]: 0.25%
- remaining activity at 1 µM [12, 31]: 100%
- remaining activity at 1 µM [13, 31]: 64%
- remaining activity at 1 µM [14, 31]: 100%
- remaining activity at 1 µM [15, 31]: 100%
- remaining activity at 1 µM [16, 31]: 100%
- remaining activity at 1 µM [17, 31]: 100%
- remaining activity at 1 µM [18, 31]: 100%
- remaining activity at 1 µM [19, 31]: 8.9%
- remaining activity at 1 µM [20, 31]: 73%
- remaining activity at 1 µM [21, 31]: 97%
- remaining activity at 1 µM [22, 31]: 100%
- remaining activity at 1 µM [23, 31]: 0.2%
- remaining activity at 1 µM [24, 31]: 100%
- remaining activity at 1 µM [25, 31]: 86%
- remaining activity at 1 µM ([26]; read-out: HYJ-2-002-1 (1μM) % control, Kin.Dom.1-N-terminal): 42%
- remaining activity at 1 µM ([26]; read-out: HYJ-2-002-1 (1μM) % control, Kin.Dom.2-C-terminal): 73%
- remaining activity at 1 µM [27, 31]: 4.2%
- remaining activity at 1 µM [28, 31]: 95%
- remaining activity at 1 µM [29, 31]: 0.55%
SMILES: CCN1CCN(Cc2ccc(NC(=O)c3ccc(C)c(CCc4cnc5[nH]ccc5c4OC)c3)cc2C(F)(F)F)CC1 [HYJ-2-002-1]
